# Measured values published in patent US8895579B2, “Heterotricyclic AMPA receptor antagonists for treatment of epilepsy, pain, and other neurological disorders and diseases” (Northwestern University, priority 2010, dated 2014).
# Test system: primary hippocampal neurons
# Experiment: Spontaneous action potential firing, current clamp, cultured hippocampal neurons
# Assay type: cell-based
# Conditions: 20 μM
# Description: Experiments involving primary hippocampal neurons were carried out as described previously (Vivithanaporn et al., 2007). Dissociated neurons were cultured from E18 prenatal hippocampi and were used for analysis from between 17 and 28 days in vitro. The extracellular solution was the same as used for recombinant receptor analysis, while the internal solution for voltage clamp recordings contained (in mM) 95 CsF, 25 CsCl, 10 Cs-HEPES, 10 EGTA, 2 NaCl, 2 Mg-ATP, 10 QX-314, 5 TEA. and 5 4-AP (pH 7.3) and the internal solution for current clamp recordings contained (in mM) 120 KMeSO4, 5 KCl, 5 NaCl, 1 MgCl2, 11 Na-HEPES, 10 phosphocreatine, 4 Na-ATP, and 0.3 Na-GTP (pH 7.0). Borosilicate patch electrodes were pulled and fire polished to 3-5 MΩ resistance. Both whole cell current clamp and voltage clamp recordings were performed using an Axopatch 200B amplifier (MDS, Sunnyvale, Calif.) and filtered at 20 kHz. Gigaohm seals were established in voltage clamp mode and, after membrane rupture, the recordings were carried out either in voltage clamp (clamped at Vm=−70 mV) with a […] series resistance, which was compensated to ˜60%, or in current clamp mode ([…]) with the bridge balance was corrected and pipette resistance neutralized. In vitro status epilepticus (SE) was induced as described previously (Deshpande et al., 2007; Pal et al., 1999) and action potentials were recorded in current clamp mode. Briefly for in vitro SE, magnesium-containing external solution was exchanged for external solution without magnesium and supplemented with 2 μM glycine. This solution exchange produced a period of rapid depolarization and increased AP firing, followed by a period of channel inactivation and reduced AP firing. After channel inactivation, neurons characteristically would hyperpolarize to hold at a membrane voltage (Vm) which was depolarized relative to control Vm, with an increase in AP firing frequency. […] External solutions were bath-applied at a flow rate of 1.5-2 ml/minute. After recording a basal control period, IKM compounds were applied for five minutes (10 minutes for in vitro SE experiments) and changes in excitatory post-synaptic current (EPSC) charge transfer or action potential (AP) frequency were analyzed during the last two minutes of IKM application.
# Effects of IKM-159 on neuronal excitability. […] To determine if altered neuronal excitability could contribute to this behavioral phenotype, we examined the effect of IKM-86 and IKM-159 on action potential firing in cultured hippocampal neurons. Spontaneous action potentials were recorded in current-clamp mode before, during and after application of 20 μM IKM-86 and IKM-159. […]
structure (smiles),measurement,setting,value
O=C(O)C[C@@]12O[C@H]3C=CCN[C@H]3C1CN[C@H]2C(=O)O (some centres unmarked) [IKM-159],persistence of reduction in action potential firing frequency after removal of compound,,prolonged
same,action potential firing frequency in presence of compound,basal (spontaneous) firing,0.5±0.04 Hz
